The values below come from patent publication US20250179032A1, “HETEROCYCLIC INHIBITORS OF GLUT9 FOR TREATMENT OF DISEASE” (HORIZON THERAPEUTICS IRELAND DAC, priority 2022, published 2025).

A word on the IC50: it is the concentration at which inhibition is half-maximal.

For one experiment, the target named is T1, H. sapiens SLC2A9 variant 2 (GLUT9B) (Homo sapiens, UniProt Q9NRM0).
T1 sequence (Q9NRM0 1-511 isoform Q9NRM0-2): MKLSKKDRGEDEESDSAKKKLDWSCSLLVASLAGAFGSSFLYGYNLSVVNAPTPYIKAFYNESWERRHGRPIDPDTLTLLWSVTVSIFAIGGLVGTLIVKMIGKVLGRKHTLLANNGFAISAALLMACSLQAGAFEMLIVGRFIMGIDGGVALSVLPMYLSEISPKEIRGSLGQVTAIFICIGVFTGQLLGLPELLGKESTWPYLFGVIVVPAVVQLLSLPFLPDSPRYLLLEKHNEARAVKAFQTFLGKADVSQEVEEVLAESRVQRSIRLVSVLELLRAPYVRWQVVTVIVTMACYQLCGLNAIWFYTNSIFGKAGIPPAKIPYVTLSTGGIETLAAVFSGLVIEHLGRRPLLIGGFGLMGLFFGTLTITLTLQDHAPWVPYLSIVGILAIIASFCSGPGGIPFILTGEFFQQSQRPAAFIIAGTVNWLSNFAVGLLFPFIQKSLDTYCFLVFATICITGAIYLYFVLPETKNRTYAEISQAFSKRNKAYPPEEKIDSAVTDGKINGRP
The experiment is described as follows: GLUT9 functional assay: uric acid uptake in HEK293T cells, allantoin formation by MS/MS as proxy of GLUT9B inhibition. In kind it is cell-based. Conditions: 15 minute assay; HEK293T cells stably expressing GLUT9B and transiently A. oryzae uricase; uric acid 0.3 mM, 37° C.; read-out: 15 min IC50. Summed up: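 HEK293T cells stably expressing human GLUT9B and transiently expressing A. oryzae uricase, exposed across a 12-point curve to 0.3 mM uric acid (Km) in sodium gluconate buffer pH 7.4 for 15 or 60 min at 37° C. Allantoin in lysates quantified by RapidFire MS/MS (positive ion) against a matrix-matched standard curve as proxy for uptake.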
On to `CCC(F)(F)Cc1cnc(-c2ccc3occc3c2)c(N2CCC(C(=O)O)CC2)n1` [Compound 149, 1-(3-(benzofuran-5-yl)-6-(2,2-difluorobutyl)pyrazin-2-yl)piperidine-4-carboxylic acid], for which the IC50 was under 0.5 µM. In the case of `CCC(F)(F)Cc1cnc(-c2ccc(OCC3CC3)cc2)c(N2CCC(C(=O)O)CC2)n1` [Compound 150, 1-(3-(4-(cyclopropylmethoxy)phenyl)-6-(2,2-difluorobutyl)pyrazin-2-yl)piperidine-4-carboxylic acid], the half-inhibitory concentration (IC50) lay within 0.5 to 2 µM. The same measure, in the same setting: then `O=C(O)C1CCN(c2nc(CCCOC(F)(F)F)cnc2-c2ccc3occc3c2)CC1` [Compound 151, 1-(3-(benzofuran-5-yl)-6-(3-(trifluoromethoxy)propyl)pyrazin-2-yl)piperidine-4-carboxylic acid], with under 0.5 µM. On to `O=C(O)C1CCN(c2nc(CCC(F)(F)F)cnc2-c2ccc(OCC3CC3)cc2)CC1` [Compound 152, 1-(3-(4-(cyclopropylmethoxy)phenyl)-6-(3,3,3-trifluoropropyl)pyrazin-2-yl)piperidine-4-carboxylic acid], for which the IC50 is under 0.5 µM. For `O=C(O)C1CCN(c2nc(CCCCC(F)(F)F)cnc2-c2ccc(OCC3CC3)cc2)CC1` [Compound 153, 1-(3-(4-(cyclopropylmethoxy)phenyl)-6-(5,5,5-trifluoropentyl)pyrazin-2-yl)piperidine-4-carboxylic acid], the IC50 is under 0.5 µM. The same measure, in the same setting: then `O=C(O)C1CCN(c2nc(CCC(F)(F)C(F)(F)F)cnc2-c2ccc(OCC3CC3)cc2)CC1` [Compound 154, 1-(3-(4-(cyclopropylmethoxy)phenyl)-6-(3,3,4,4,4-pentafluorobutyl)pyrazin-2-yl)piperidine-4-carboxylic acid], with 0.5 to 2 µM; and `COCCOc1ccc(-c2ncc(CC(COC)COC)nc2N2CCC(C(=O)O)CC2)cc1` [Compound 155, 1-(6-(3-methoxy-2-(methoxymethyl)propyl)-3-(4-(2-methoxyethoxy)phenyl)pyrazin-2-yl)piperidine-4-carboxylic acid], with over 2 µM. As for `COCC(COC)Cc1cnc(-c2ccc(OCC3CC3)cc2)c(N2CCC(C(=O)O)CC2)n1` [Compound 156, 1-(3-(4-(cyclopropylmethoxy)phenyl)-6-(3-methoxy-2-(methoxymethyl)propyl)pyrazin-2-yl)piperidine-4-carboxylic acid], the IC50 was over 2 µM. The same measure, in the same setting: then `O=C(O)C1CCN(c2nc(CCCC(F)(F)F)cnc2-c2ccc(OC(F)(F)F)cc2)CC1` [Compound 157, 1-(6-(4,4,4-trifluorobutyl)-3-(4-(trifluoromethoxy)phenyl)pyrazin-2-yl)piperidine-4-carboxylic acid], with under 0.5 µM; and `O=C(O)C1CCN(c2nc(CCCC(F)(F)F)cnc2-c2ccc(C(F)(F)F)cc2)CC1` [Compound 158, 1-(6-(4,4,4-trifluorobutyl)-3-(4-(trifluoromethyl)phenyl)pyrazin-2-yl)piperidine-4-carboxylic acid], with 0.5 to 2 µM. The same measure, in the same setting: then `O=C(O)C1CCN(c2nc(CCCC(F)(F)F)cnc2-c2ccc(OC(F)F)cc2)CC1` [Compound 159, 1-(3-(4-(difluoromethoxy)phenyl)-6-(4,4,4-trifluorobutyl)pyrazin-2-yl)piperidine-4-carboxylic acid], with 0.5 to 2 µM. Turning to `O=C(O)C1CCN(c2nc(CCCC(F)(F)F)cnc2-c2ccc3c(c2)OC(F)(F)O3)CC1` [Compound 160, 1-(3-(2,2-difluorobenzo[d][1,3]dioxol-5-yl)-6-(4,4,4-trifluorobutyl)pyrazin-2-yl)piperidine-4-carboxylic acid], the IC50 was 0.5 to 2 µM.

In the case of `O=C(O)C1CCN(c2nc(CCC(F)(F)F)cnc2-c2ccc(OC(F)(F)F)cc2)CC1` [Compound 161, 1-(3-(4-(trifluoromethoxy)phenyl)-6-(3,3,3-trifluoropropyl)pyrazin-2-yl)piperidine-4-carboxylic acid], the IC50 lay in the range of 0.5 to 2 µM.

As to `O=C(O)C1CCN(c2nc(CCC(F)(F)F)cnc2-c2ccc(C(F)(F)F)cc2)CC1` [Compound 162, 1-(3-(4-(trifluoromethyl)phenyl)-6-(3,3,3-trifluoropropyl)pyrazin-2-yl)piperidine-4-carboxylic acid], the IC50 fell in the range of 0.5 to 2 µM.

`O=C(O)C1CCN(c2nc(CCC(F)(F)F)cnc2-c2ccc(OC(F)F)cc2)CC1` [Compound 163, 1-(3-(4-(difluoromethoxy)phenyl)-6-(3,3,3-trifluoropropyl)pyrazin-2-yl)piperidine-4-carboxylic acid]: the IC50 fell in the range of 0.5 to 2 µM. Regarding `O=C(O)C1CCN(c2nc(CCC(F)(F)F)cnc2-c2ccc3c(c2)OC(F)(F)O3)CC1` [Compound 164, 1-(3-(2,2-difluorobenzo[d][1,3]dioxol-5-yl)-6-(3,3,3-trifluoropropyl)pyrazin-2-yl)piperidine-4-carboxylic acid], the IC50 was 0.5 to 2 µM. Consider `O=C(O)C1(O)CCN(c2nc(CCCC(F)(F)F)cnc2-c2cc(F)c3occc3c2)CC1` [Compound 165, 1-(3-(7-fluorobenzofuran-5-yl)-6-(4,4,4-trifluorobutyl)pyrazin-2-yl)-4-hydroxypiperidine-4-carboxylic acid], for which the IC50 is under 0.5 µM. Same read-out and setting: then `O=C(O)C1(O)CCN(c2nc(CCCC(F)(F)F)cnc2-c2ccc3c(c2)OCO3)CC1` [Compound 166, 1-(3-(benzo[d][1,3]dioxol-5-yl)-6-(4,4,4-trifluorobutyl)pyrazin-2-yl)-4-hydroxypiperidine-4-carboxylic acid], with 0.5 to 2 µM; and `COCCOc1ccc(-c2ncc(CCCC(F)(F)F)nc2N2CCC(O)(C(=O)O)CC2)cc1` [Compound 167, 4-hydroxy-1-(3-(4-(2-methoxyethoxy)phenyl)-6-(4,4,4-trifluorobutyl)pyrazin-2-yl)piperidine-4-carboxylic acid], with over 2 µM. Still for that read-out and setting: the result for `COCCCc1cnc(-c2cc(F)c3occc3c2)c(N2CCC(C(=O)O)CC2)c1` [Compound 168, 1-(2-(7-Fluorobenzofuran-5-yl)-5-(3-Methoxypropyl)Pyridin-3-yl)piperidine-4-carboxylic acid] reads under 0.5 µM; that for `COCCCc1cnc(-c2cc(F)c3c(c2)OCO3)c(N2CCC(C(=O)O)CC2)c1` [Compound 169, 1-(2-(7-fluorobenzo[d][1,3]dioxol-5-yl)-5-(3-methoxypropyl)pyridin-3-yl)piperidine-4-carboxylic acid], under 0.5 µM. Same read-out and setting: the result for `COCCCc1cnc(-c2cnc3occc3c2)c(N2CCC(C(=O)O)CC2)c1` [Compound 170, 1-(2-(Furo[2,3-b]Pyridin-5-yl)-5-(3-Methoxypropyl)Pyridin-3-yl)piperidine-4-carboxylic acid] reads 0.5 to 2 µM; that for `COCCCc1cnc(-c2ccc3c(c2)OCO3)c(N2CCC(O)(C(=O)O)CC2)n1` [Compound 171, 1-(3-(benzo[d][1,3]dioxol-5-yl)-6-(3-methoxypropyl)pyrazin-2-yl)-4-hydroxypiperidine-4-carboxylic acid], over 2 µM; that for `COCCCc1cnc(-c2ccc3occc3c2)c(N2CCC(C(=O)O)CC2)n1` [Compound 172, 1-(3-(benzofuran-5-yl)-6-(3-Methoxypropyl)Pyrazin-2-yl)Piperidine-4-carboxylic acid], under 0.5 µM. For the compound `COCCCc1cnc(-c2cc(F)c3occc3c2)c(N2CCC(C(=O)O)CC2)n1` [Compound 173, 1-(3-(7-Fluorobenzofuran-5-yl)-6-(3-Methoxypropyl)Pyrazin-2-yl)piperidine-4-carboxylic acid], the IC50 was under 0.5 µM. The same measure, in the same setting: the result for `O=C(O)C1(O)CCN(c2nc(CCCC(F)(F)F)cnc2-c2ccc3occc3c2)CC1` [Compound 174, 1-(3-(benzofuran-5-yl)-6-(4,4,4-trifluorobutyl)pyrazin-2-yl)-4-hydroxypiperidine-4-carboxylic acid] reads 0.5 to 2 µM.

`COCCCc1cnc(-c2ccc3occc3c2)c(N2CC(C(=O)O)C2)n1` [Compound 175, 1-(3-(benzofuran-5-yl)-6-(3-methoxypropyl)pyrazin-2-yl)azetidine-3-carboxylic acid]: the IC50 was over 2 µM. Same read-out and setting: then `COCCCc1cnc(-c2ccc3c(c2)OCO3)c(N2CC(C(=O)O)C2)n1` [Compound 176, 1-(3-(benzo[d][1,3]dioxol-5-yl)-6-(3-methoxypropyl)pyrazin-2-yl)azetidine-3-carboxylic acid], with over 2 µM; and `O=C(O)C1CCN(c2nc(CCCOCC(F)(F)F)cnc2-c2ccc3occc3c2)CC1` [Compound 177, 1-(3-(benzofuran-5-yl)-6-(3-(2,2,2-trifluoroethoxy)propyl)pyrazin-2-yl)piperidine-4-carboxylic acid], with under 0.5 µM.

Still in this experiment, the particulars now being: 60 minute assay; HEK293T cells stably expressing GLUT9B and transiently A. oryzae uricase; uric acid 0.3 mM, 37° C.; read-out: 60 min IC50.
Regarding `CCC(F)(F)Cc1cnc(-c2ccc(OCC3CC3)cc2)c(N2CCC(C(=O)O)CC2)n1` [Compound 150, 1-(3-(4-(cyclopropylmethoxy)phenyl)-6-(2,2-difluorobutyl)pyrazin-2-yl)piperidine-4-carboxylic acid], the IC50 was over 2 µM.

For `COCCCc1cnc(-c2cc(F)c3occc3c2)c(N2CCC(C(=O)O)CC2)c1` [Compound 168, 1-(2-(7-Fluorobenzofuran-5-yl)-5-(3-Methoxypropyl)Pyridin-3-yl)piperidine-4-carboxylic acid], the IC50 was under 0.5 µM. With `COCCCc1cnc(-c2cnc3occc3c2)c(N2CCC(C(=O)O)CC2)c1` [Compound 170, 1-(2-(Furo[2,3-b]Pyridin-5-yl)-5-(3-Methoxypropyl)Pyridin-3-yl)piperidine-4-carboxylic acid], the IC50 is over 2 µM. The same measure, in the same setting: then `COCCCc1cnc(-c2ccc3occc3c2)c(N2CCC(C(=O)O)CC2)n1` [Compound 172, 1-(3-(benzofuran-5-yl)-6-(3-Methoxypropyl)Pyrazin-2-yl)Piperidine-4-carboxylic acid], with under 0.5 µM; and `COCCCc1cnc(-c2cc(F)c3occc3c2)c(N2CCC(C(=O)O)CC2)n1` [Compound 173, 1-(3-(7-Fluorobenzofuran-5-yl)-6-(3-Methoxypropyl)Pyrazin-2-yl)piperidine-4-carboxylic acid], with under 0.5 µM. For `COCCCc1cnc(-c2ccc3occc3c2)c(N2CC(C(=O)O)C2)n1` [Compound 175, 1-(3-(benzofuran-5-yl)-6-(3-methoxypropyl)pyrazin-2-yl)azetidine-3-carboxylic acid], the IC50 is over 2 µM. Same read-out and setting: the result for `O=C(O)C1CCN(c2nc(CCCOCC(F)(F)F)cnc2-c2ccc3c(c2)OCO3)CC1` [Compound 178, 1-(3-(benzo[d][1,3]dioxol-5-yl)-6-(3-(2,2,2-trifluoroethoxy)propyl)pyrazin-2-yl)piperidine-4-carboxylic acid] reads 0.5 to 2 µM.
